Measured values: paper PMC9977398, “Next-generation membrane-active glycopeptide antibiotics that also inhibit bacterial cell division” (Chemical Science, 2023)

Test system: MDCK cells
Type: cell-based
Conditions: 24 h, Alamar blue
Protocol: acid group of vancomycin to yield the compounds 1-10. All the derivatives of vancomycin were purified by reverse phase HPLC to about 90 % purity with 65-75 % yield and characterized by HR-MS and 1H-NMR.
Figure S1. Cytotoxicity of VanQAmC10 against MDCK cells. The CC50 (defined as the concentration at which the viability of compound treated cells reduced to 50%) was greater […]
(1 picture or pasted object on this page, not shown here)
50 μL of serially diluted compound was added into 96 well microtiter plates. Freshly drawn, heparanized human blood was centrifuged down to obtain the erythrocytes and re-suspended to 5 vol % in PBS (pH 7.4). […] 100 μL of the supernatant from each well were transferred into fresh microtiter plates, and A540 was measured.
% haemolysis = (A - A0)/(Atotal -A0) × 100, where A is the absorbance of the test well, A 0 the absorbance of the negative controls (without compound), and A total the absorbance of 100 % hemolysis wells (with Triton X -100), all at 540 nm. […]
2 h post incubation with dye, the absorbance was measured at 570 nm using 600 nm as […]
The bactericidal activity of the compounds was evaluated with the time kill kinetics assay.
MRSA ATCC 33591 cells were cultured in nutrient media at 37°C for 6 h. […] The bacterial colonies were counted and results are represented in logarithmic scale, i.e. log10 (CFU/mL). […]

## CCCCCCCCCCNC(=O)C[N+](C)(C)CCCNC(=O)C1NC(=O)C2NC(=O)C(NC(=O)C3NC(=O)C(CC(N)=O)NC(=O)C(NC(=O)C(CC(C)C)NC)C(O)c4ccc(c(Cl)c4)Oc4cc3cc(c4OC3OC(CO)C(O)C(O)C3OC3CC(C)(N)C(O)C(C)O3)Oc3ccc(cc3Cl)C2O)c2ccc(O)c(c2)-c2c(O)cc(O)cc21 (stereo not shown) [VanQAmC10 (8)]
  CC50: > 64 µM
